In the supplement of paper PMC3974653:
Structures can show the parent of a compound that is named as a salt.

Tested on: MTT (mouse pheochromocytoma)
Experiment: IC50 of cell viability (ATP content)
Details: (24 or 48 h)
In short: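 The IC50 was fitted with a four-parameter logistic equation to normalised CellTiter-Glo ATP luminescence from MTT mouse pheochromocytoma cells. These cells, in white 1536-well plates, had been treated for 24 or 48 hrs with library compounds at 8 final concentrations between 0.5 nM and 46 µM, and luminescence was read after 15 minutes. Positive-control wells served as 100% and DMSO wells as 0%.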

IC50 of cell viability [µM]	Compound
> 46	OCc1ccc(Cl)cc1Cl [DICHLOROBENZYL ALCOHOL]
> 46	ClC1=CC=C(C=C1)C(C#N)C2=C(Cl)C=C(C=C2Cl)N3\N=C/C(=O)NC3=O (stereo not drawn) [DICLAZURIL]
> 46	O=C([O-])Cc1ccccc1Nc1c(Cl)cccc1Cl.[Na+] [DICLOFENAC SODIUM]
> 46	COc1ccc(/C=C/C(=O)O)cc1 [DIETHANOLAMINE METHOXYCINNAMATE]
> 46	CC/C(=C(/CC)c1ccc(OP(=O)(O)O)cc1)c1ccc(OP(=O)(O)O)cc1 [DIETHYLSTILBESTROL DIPHOSPHATE]
> 46	CCN(CC)C(=O)c1cccc(C)c1 [DIETHYLTOLUAMIDE]
> 46	CC(C(O)c1ccccc1)N(C)CCOC(c1ccccc1)c1ccccc1 (stereo not drawn) [DIFETEROL HYDROCHLORIDE]
> 46	CN1CCN(c2cc3c(cc2F)c(=O)c(C(=O)O)cn3-c2ccc(F)cc2)CC1 [DIFLOXACIN HYDROCHLORIDE]
> 46	CCCCC(=O)OCC(=O)[C@H]1[C@H](C)C[C@@H]2[C@@H]3C[C@@H](F)C4=CC(=O)C=C[C@]4(C)[C@@]3(F)[C@@H](O)C[C@@]21C [DIFLUCORTOLONE VALERATE]
> 46	CCCC(=O)O[C@@]1(CC[C@H]2C3C[C@H](F)\C4=C\C(=O)\C=C/C4(C)[C@@]3(F)[C@@H](O)CC12C)C(=O)COC(C)=O (stereo partly drawn) [DIFLUPREDNATE]
> 46	NNc1nnc(NN)c2ccccc12 [DIHYDRALAZINUM]
> 46	CC1CCC(O)C/C1=C\C=C1/CCCC2(C)C1CCC2C(C)/C=C/C(C)C(C)C (stereo not drawn) [DIHYDROTACHYSTEROL]
> 46	COc1cc(C(=O)OCCCN2CCCN(CCCOC(=O)c3cc(OC)c(OC)c(OC)c3)CC2)cc(OC)c1OC [DILAZEP]
> 46	COc1ccc([C@@H]2Sc3ccccc3N(CCN(C)C)C(=O)[C@@H]2OC(C)=O)cc1 [DILTIAZEM]
> 46	CCN(CC)CCOc1ccc2nc(N(C)C)sc2c1 [DIMAZOLE DIHYDROCHLORIDE]
> 46	COc1ccc2c(=O)c(C)c(-c3ccccc3)oc2c1CN(C)C [DIMEFLINE HYDROCHLORIDE]
> 46	CC1(C)OC(=O)NC1=O [DIMETHADIONE]
> 46	CCCCCCCCCCCCCC(=O)OCC(COP(=O)([O-])OCC[N+](C)(C)C)OC(=O)CCCCCCCCCCCCC (stereo not drawn) [DIMYRISTOYL LECITHIN]
> 46	Cc1c(C(N)=O)cc([N+](=O)[O-])cc1[N+](=O)[O-] [DINITOLMIDE]
> 46	CCCCC[C@H](O)/C=C/[C@H]1[C@H](O)CC(=O)[C@@H]1C/C=C\CCCC(=O)O [DINOPROSTONE]
> 46	COC1=CC=C(C=C1O)C/2=C/C(=O)C3=C(O)C=C(O[C@H]4OC(COC5OC(C)C(O)C(O)[C@H]5O)C(O)C(O)C4O)C=C3O2 (stereo partly drawn) [DIOSMIN]
> 46	CN(C)CCOC(c1ccccc1)c1ccccc1 [DIPHENHYDRAMINE]
> 46	c1ccc(-c2nc[nH]c2-c2ccccc2)cc1 [DIPHENYLIMIDAZOLE]
> 46	C[N+]1(CC2COC(c3ccccc3)(c3ccccc3)O2)CCCCC1 (stereo not drawn) [DIPHENYLPIPERIDINOMETHYLDIOXOLAN IODIDE (Anacolin)]
> 46	CC[N+](CC)(CC)CCOC(=O)C(C1CCCC1)C1CCCC1 [DIPONIUM BROMIDE]
> 46	OCCN(CCO)c1nc(N2CCCCC2)c2nc(N(CCO)CCO)nc(N3CCCCC3)c2n1 [DIPYRIDAMOLE]
> 46	CC(=O)Oc1cccc(C(=O)O)c1OC(C)=O [DIPYROCETYL]
> 46	CC[C@H]1OC(=O)[C@H](C)[C@@H](O[C@H]2C[C@@](C)(OC)[C@@H](O)[C@H](C)O2)[C@H](C)[C@@H](O[C@@H]2O[C@H](C)C[C@H](N(C)C)[C@H]2O)[C@](C)(O)C[C@@H](C)[C@@H]2N[C@@H](COCCOC)O[C@H]([C@H]2C)[C@]1(C)O [DIRITHROMYCIN]

IC50 of cell viability [µM]	Compound
> 46	Cn1cc(NC(=O)c2cc(NC(=O)c3cc(NC=O)cn3C)cn2C)cc1C(=O)NCCC(=N)N [DISTAMYCIN A]
> 46	CCN(CC)C(=S)S [DITIOCARBUM NATRICUM]
> 46	CN(C)C(=O)Nc1ccc(Cl)c(Cl)c1 [DIURON]
> 46	CC(CCc1ccc(O)cc1)NCCc1ccc(O)c(O)c1 (stereo not drawn) [DOBUTAMINE]
> 46	CC(=O)O[C@@]12CO[C@@H]1C[C@H](O)[C@@]1(C)C(=O)[C@H](O)C3=C(C)[C@@H](OC(=O)C(O)[C@@H](NC(=O)OC(C)(C)C)c4ccccc4)C[C@@](O)([C@@H](OC(=O)c4ccccc4)[C@H]21)C3(C)C (stereo partly drawn) [DOCETAXEL]
> 46	CC/C=C\C/C=C\C/C=C\C/C=C\C/C=C\C/C=C\CCC(=O)O [DOCOSAHEXAENOIC ACID]
> 46	CCCCCCCCCCCCCCCCCCCCCCO [DOCOSANOL]
> 46	FC(F)(F)C(F)(F)C(F)(F)C(F)(F)C(F)(F)F [DODECAFLUOROPENTANE]
> 46	COc1cc2c(cc1OC)C(=O)C(CC1CCN(Cc3ccccc3)CC1)C2 (stereo not drawn) [DONEPEZIL HYDROCHLORIDE]
> 46	NCCc1ccc(O)c(O)c1 [DOPAMINE]
> 46	Cc1ccc(-n2nc(C(C)(C)C)cc2NC(=O)Nc2ccc(OCCN3CCOCC3)c3ccccc23)cc1 [DORAMAPIMOD]
> 46	O=[N+]([O-])c1nccn1CO[C@@H](CO)[C@H](O)CO [DORANIDAZOLE]
> 46	C[C@@H](O)[C@H]1C(=O)N2C(C(=O)O)=C(S[C@@H]3CN[C@H](CN[S+](N)(=O)[O-])C3)[C@H](C)[C@H]12 [DORIPENEM HYDRATE]
> 46	CCN1CC(CCN2CCOCC2)C(c2ccccc2)(c2ccccc2)C1=O (stereo not drawn) [DOXAPRAM HYDROCHLORIDE]
> 46	CCN(CC)CCOC(=O)C(c1ccccc1)C1CCCCC1.Cl (stereo not drawn) [DROFENINE HYDROCHLORIDE]
> 46	OCC(O)CN1CCN(c2ccccc2)CC1 (stereo not drawn) [DROPROPIZINE]
> 46	CN(C)/N=N/c1nc[nH]c1C(N)=O [Dacarbazine]
> 46	C#C[C@]1(O)CC[C@H]2[C@@H]3CCC4=Cc5oncc5C[C@]4(C)[C@H]3CC[C@@]21C [Danazol]
> 46	CN1C[C@@H]2C[C@H]1CN2c1cc2c(cc1F)c(=O)c(C(=O)O)cn2C1CC1 [Danofloxacin mesylate]
> 46	O=C1c2cccc(O)c2C(=O)c2c(O)cccc21 [Danthron]
> 46	Cc1c(Cn2ccnc2)c2ccccc2n1CCC(=O)O [Dazmegrel]
> 46	N=C(N)N1CCc2ccccc2C1 [Debrisoquin sulfate]
> 46	CCCCCCCCCC(=O)O [Decanoic acid]
> 46	CCCCCCCCCCOCC(O)CN (stereo not drawn) [Decominol]
> 46	Cc1cc(O)cc2c1O[C@](C)(CCC[C@H](C)CCC[C@H](C)CCCC(C)C)CC2 [Delta-Vitamin E]
> 46	CN(C)[C@H]\1[C@@H]2C[C@@H]\3[C@@H](O)C4=C(Cl)C=CC(=C4C(=O)C3=C(\O)[C@@]2(O)C(=O)\C(=C1O)C(N)=O)O [Demeclocycline hydrochloride]
> 46	C[C@H](CCC(=O)[O-])[C@H]1CC[C@H]2[C@@H]3CC[C@@H]4C[C@H](O)CC[C@]4(C)[C@H]3C[C@H](O)[C@]12C [Deoxycholic acid sodium salt]

Compound	IC50 of cell viability [µM]
Cc1ccc2c(c1)[C@@H]1CN(C)CC[C@H]1N2 [DICARBINUM]	> 46
CCN(CC)C(C)C(=O)c1ccccc1 (stereo not drawn) [DIETHYLPROPION HYDROCHLORIDE]	> 46
CN1C[C@H](C(=O)N[C@]2(C)O[C@@]3(O)[C@@H]4CCCN4C(=O)[C@H](Cc4ccccc4)N3C2=O)C[C@@H]2c3cccc4[nH]cc(c34)C[C@H]21 [DIHYDROERGOTAMINE]	> 46
CNC1C(OC2C(O[C@@H]3C(O)C(O)[C@@H](NC(=N)N)C(O)C3NC(=N)N)OC(C)[C@@]2(O)CO)OC(CO)C(O)C1O.O=[S+]([O-])(O)O (stereo partly drawn) [DIHYDROSTREPTOMYCIN SULFATE]	> 46
CC(Cc1ccccc1)N(C)C (stereo not drawn) [DIMETAMFETAMINUM]	> 46
CCOC(=O)C1(c2ccccc2)CCN(CCC(C#N)(c2ccccc2)c2ccccc2)CC1 [DIPHENOXYLATE HYDROCHLORIDE]	> 46
O=[N+]([O-])c1cc(I)c(O)c(I)c1 [DISOPHENOL SODIUM]	> 46
C[S+](=O)([O-])O.O.O=C(O[C@@H]1C[C@@H]2C[C@@H]3C[C@H](C1)N2CC3=O)c1c[nH]c2ccccc12 [DOLASETRON MESYLATE]	> 46
CN(C)CCO [Deanol]	> 46
CC(=O)N(O)CCCCCNC(=O)CCC(=O)N(O)CCCCCNC(=O)CCC(=O)N(O)CCCCCN.C[S+](=O)([O-])O [Deferoxamine mesylate]	> 46
CC(=O)O[C@H]1CC[C@]\2(C)[C@@H]3CC[C@@]4(C)[C@H](CCC4=O)[C@@H]3C\C=C2C1 [Dehydroisoandosterone 3-acetate]	> 46
[Na+].C[C@]12CC[C@H]3[C@@H](C\C=C/4C[C@H](CC[C@]34C)O[S]([O-])(=O)=O)[C@@H]1CCC2=O [Dehydroisoandrosterone 3-sulfate sodium]	> 46
O=C1C[N+]([O-])=C(c2ccccc2)c2cc(Cl)ccc2N1 [Demoxepam]	> 46
